From ChEMBL document CHEMBL1128643, “Impact of polyamine analogues on the NMDA receptor” (1995)

Assays:
Rattus norvegicus [1] = species: Rattus norvegicus; assay: Compound was evaluated for agonist activity at 1 uM exhibiting moderate antagonism of [3H]MK-801 binding relative to 100% control; type: functional; parameters: unit: % of control
Rattus norvegicus [2] = species: Rattus norvegicus; assay: Compound was evaluated for agonist activity at 10 uM exhibiting moderate antagonism of [3H]MK-801 binding relative to 100% control; type: functional; parameters: unit: % of control

Row | SMILES | Activity (Rattus norvegicus [1]) | Activity (Rattus norvegicus [2])
1 | CCNCCCNCCCCNCCCNCC [BIS(ETHYL)SPERMINE] | 113.7 | 63.7
2 | CNCCCNCCCNCCCNC | 120.6 | 87.9
3 | NCCCNCCCCNCCCN [SPERMINE] | 123.2 | –
4 | CNCCCCNCCCCNCCCCNC | 117.8 | 76.3
5 | CCNCCCCNCCCCNCCCCNCC [DIETHYLHOMOSPERMINE] | 114.3 | 53.9
6 | CC(C)(C)NCCCCNCCCCNCCCCNC(C)(C)C | 106.5 | 33
7 | C(CCNCCCCN[C@]12C[C@H]3C[C@H](C[C@H](C3)C1)C2)CNCCCCNC12C[C@H]3C[C@@H](C1)C[C@@H](C2)C3.Cl | 101.9 | 15
